Laboratory results: PMC5650142, “GPR40 partial agonists and AgoPAMs: Differentiating effects on glucose and hormonal secretions in the rodent” (PLoS ONE, 2017)
“And” between values parts separate entries of the source, which are not always exact repeats. Equal entries are not always repeated.

What was measured:
GK rats [1] = assay: 13C-labeled glucose tolerance test (tissue 13C-glycogen); format: in vivo; conditions: GK rat, 13C-GTT after sub-chronic treatment; vs MK-8666 or vehicle
Procedure: On day 0, GK rats were selected and sorted into treatment groups based on ambient glucose measured via glucometer at 1 h post lights on. MK-8666 at 30 mg/kg was administered in feed (Research Diets) and provided ad lib on day 0. On days 1–6, rats were dosed via oral gavage (PO) at a volume of 5 ml/kg daily at approximately 12:30 PM with either vehicle (0.5% methylcellulose) or AP1 at 10 mg/kg. Rats from the MK-8666 group were administered vehicle PO at this time. On day 7, ambient glucose was measured 1 hr post lights on and food was removed. After approximately 5 hrs fasting, glucose was measured at time = - 60 min, followed by PO administration of vehicle or AP1. […] Blood glucose was then measured at t = 20, 40, 60, 120 minutes post challenge. […]
Glycogen is a primary site of glucose disposal in both liver and muscle; however glycogen was not preserved in our tissue extraction protocol. To quantify tissue 13C-glycogen, a separate piece of tissue from each sample was analyzed. […] The resulting glycogen-derived glucose solution was analyzed for total glucose using a glucose oxidase / horseradish peroxidase assay kit and fluorescence-based product detection according to the manufacturers’ instructions (BioVision Glycogen Assay Kit, Milpitas, CA).

GK rats [2] = assay: Endogenous glucose production in vivo (2H/13C dual tracer); parameters: species or system rat;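 on Glucose production, EGP Total: micromoles per kg body weight per minute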;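 on Glucose production, Glycerol: absolute flux in micromoles per kg per minute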;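 on Glucose production, Glycogen: absolute flux in micromoles per kg per minute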;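 on Glucose production, TCA: absolute flux in micromoles per kg per minute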
Procedure: To evaluate the effects of the GPR40 partial and AgoPAM compounds on EGP in vivo, a 2H/13C dual tracer approach was used to calculate EGP and its contributing sources. Following the chronic treatments described above, 0.9% NaCl salinated deuterium oxide (D2O, Sigma-Aldrich, St. Louis, MO) was administered to all animals via intraperitoneal (IP) injection at dose volume of 20 ml/kg at 1 hr post lights on. Animals were then placed in clean cages and food was removed. After a 5 hour fast, blood glucose was measured and animals were dosed with 50 mg/kg [U-13C] glucose (Sigma-Aldrich, St. Louis, MO) IP at 5 ml/kg. Blood was collected via tail snip at time points from 60–150 min post treatment to measure blood glucose (via glucometer) as well as endogenous (12C-glucose) and exogenous (13C-glucose) via GCMS. Following the last tail blood collection, rats were anesthetized with isoflurane and cardiac blood was collected into K2EDTA tubes (Becton, Dickinson and Co., Franklin Lakes, NJ).
The serially collected blood samples were analyzed for 13C-glucose enrichment using GC-MS analysis. The % 13C glucose enrichments were then combined with the total glucose readings to calculate the concentration of 13C-glucose, and these values were modeled with a two-compartment model of whole body glucose metabolism to calculate the average EGP for the period from 0–150 minutes.
Terminal blood samples were analyzed for relative 2H enrichment in plasma glucose using the monoacetone glucose method. Briefly, samples were extracted with 70% perchloric acid at a ratio of 50 μl perchloric acid per 1 ml plasma and centrifuged at 25,000 rcf for 10 min at 4°C. The supernatant was collected and the pH was adjusted to 6–8 using aqueous KOH. The samples were then lyophilized overnight. To convert plasma glucose to monoacetone glucose (MAG), acetone and concentrated sulfuric acid were added to the lyophilized samples and stirred for 4 hours at room temperature. Water was then added and the pH adjusted to 2.0 with 3M Na2CO3. Samples were stirred moderately for 18 hours at room temperature, the pH was adjusted to 7 with 3M Na2CO3, and the samples were completely dried by speed vacuum concentration. The resulting MAG samples were then extracted in hot ethyl acetate, dried overnight under a stream of N2 gas, and purified using Discovery DSC-18 SPE columns (6 ml, 1 g bed weight). For the SPE protocol, MAG samples were reconstituted in 3 ml water and passed over the columns which were pre-washed with 2 ml methanol. The columns were rinsed twice with 1 ml water and the MAG was eluted with 5% acetonitrile. The acetonitrile eluent was then transferred to a glass scintillation vial and freeze dried. Purified MAG samples were solubilized in 180 μl 90% acetonitrile for 2H NMR analysis which was performed using the lock channel of a 950 MHz Bruker NMR spectrometer (David H Murdock Research Institute, DHMRI Kannapolis, NC). Acquisition parameters were as follows: 90° pulse, D1 = 1 s, 1H broadband decoupling, NS = 3600, acquisition time ~ 1 hr. The 2H NMR spectra of the MAG samples were then analyzed using Matlab (The Mathworks Inc, Natick, MA) to model the NMR peaks with a Lorentzian lineshape, and the results were used to calculate integrals for each of the seven NMR resonances in the MAG spectrum. Peaks 2, 5, and 6s were then used to calculate the relative sources of EGP (i.e. gluconeogenesis from TCA cycle substrates, glucose production from triose phosphates, and glycogenolysis) and these values were combined with the total EGP measurement to calculate absolute fluxes of glucose production.

[3] = GK rats, 30 mpk, individual animal values (data for Fig 8), 30 mg/kg

Row | SMILES | skeletal muscle 13C-glycogen levels (GK rats [1]) | endogenous glucose production (EGP) (GK rats [2]; GK rat, following chronic treatment) | Glucose production, EGP Total (GK rats [2]; [3]) | Glucose production, Glycerol (GK rats [2]; [3]) | Glucose production, Glycogen (GK rats [2]; [3]) | Glucose production, TCA (GK rats [2]; [3])
1 | COc1ccc(F)c(-c2ccc([C@@H]3CCc4ccc([C@H](C5CC5)[C@H](C)C(=O)O)cc4O3)cc2)c1 [AP1] | increased |  |  |  |  | 
2 | Cc1cc(OCCCS(C)(=O)=O)cc(C)c1-c1cccc(COc2cc3c(cn2)[C@H]2[C@@H](C3)[C@@H]2C(=O)O)c1 [MK-8666] |  | reduced | 47.3366 µmol/kg/min and 49.7015 µmol/kg/min and 23.1675 µmol/kg/min and 46.5921 µmol/kg/min and 49.3944 µmol/kg/min and 59.3105 µmol/kg/min and 53.4963 µmol/kg/min | 8.397 µmol/kg/min and 6.008 µmol/kg/min and 2.752 µmol/kg/min and 6.734 µmol/kg/min and 8.91 µmol/kg/min and 9 µmol/kg/min and 9.76 µmol/kg/min | 15.2782 µmol/kg/min and 19.9182 µmol/kg/min and 7.082 µmol/kg/min and 20.1227 µmol/kg/min and 18.1009 µmol/kg/min and 21.3139 µmol/kg/min and 17.6544 µmol/kg/min | 23.6618 µmol/kg/min and 23.7752 µmol/kg/min and 13.3332 µmol/kg/min and 19.7357 µmol/kg/min and 22.3838 µmol/kg/min and 28.9962 µmol/kg/min and 26.0816 µmol/kg/min
